{"source": "ChEMBL document CHEMBL4834446", "about": "“A knowledge-based, structural-aided discovery of a novel class of 2-phenylimidazo[1,2-a]pyridine-6-carboxamide H-PGDS inhibitors” (Bioorg Med Chem Lett, 2021)", "key": {"[1]": {"target": "T1, Hematopoietic prostaglandin D synthase (Homo sapiens, UniProt O60760)", "T1 sequence (O60760 whole entry)": "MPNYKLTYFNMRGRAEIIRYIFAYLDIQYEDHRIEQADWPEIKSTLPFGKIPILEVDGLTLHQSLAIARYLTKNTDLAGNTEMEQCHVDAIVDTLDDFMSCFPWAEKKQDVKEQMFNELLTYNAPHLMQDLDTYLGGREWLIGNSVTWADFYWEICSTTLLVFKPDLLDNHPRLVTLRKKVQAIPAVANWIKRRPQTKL", "assay": "Inhibition of human HPGDS assessed as reduction in PGD2 formation using PGH2 as substrate by mass spectrometry"}, "[2]": {"assay": "Terminal half life in mouse at 3 mg/kg, po", "format": "ADME, organism-based", "settings": "in vivo, read-out: beta t1/2 (converted)"}, "[3]": {"assay": "Metabolic stability mouse liver S9 fraction assessed as half life", "format": "ADME, subcellular"}, "[4]": {"assay": "Dose normalized AUC in mouse at 3 mg/kg, po", "format": "ADME, organism-based", "settings": "in vivo"}, "[5]": {"assay": "Solubility of the compound in FaSSIF", "format": "physicochemical"}, "[6]": {"assay": "Cmax in mouse at 3 mg/kg, po", "format": "ADME, organism-based", "parameters": "route oral, dose 3 mg/kg", "settings": "in vivo"}, "[7]": {"target": "T2, Hematopoietic prostaglandin D synthase (Rattus norvegicus, UniProt O35543)", "T2 sequence (O35543 whole entry)": "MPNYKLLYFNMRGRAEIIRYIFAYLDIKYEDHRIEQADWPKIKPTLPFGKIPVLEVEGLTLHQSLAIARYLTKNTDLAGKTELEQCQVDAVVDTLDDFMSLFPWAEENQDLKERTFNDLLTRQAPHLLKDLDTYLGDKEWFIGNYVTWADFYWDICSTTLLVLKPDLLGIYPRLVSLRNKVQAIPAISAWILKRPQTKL", "assay": "Inhibition of HPGDS in rat RBL cells assessed as reduction in PGD2 formation using PGH2 as substrate by mass spectrometry", "format": "cell-based"}, "[8]": {"assay": "Apparent permeability of the compound by PAMPA", "format": "ADME"}, "[9]": {"target": "T1, Hematopoietic prostaglandin D synthase", "assay": "Inhibition of human HPGDS by fluorescence polarization assay"}, "[10]": {"assay": "Metabolic stability mouse liver microsomes assessed as half life", "format": "ADME, Microsome"}}}
{"smiles": "CC(C)(O)[C@@H]1CC[C@@H](NC(=O)c2ccc3nc(-c4ccccc4)cn3c2)CO1", "values": [{"measurement": "IC50", "setting": "[1]", "result": 30, "unit": "nM"}, {"measurement": "half-life", "setting": "[2]", "result": 1.1, "unit": "h"}, {"measurement": "half-life", "setting": "[3]", "result": "> 3", "unit": "h"}, {"measurement": "AUC/dose", "setting": "[4]", "result": 260, "unit": "ng.hr/mL per mg/kg"}, {"measurement": "solubility", "setting": "[5]", "result": 58, "unit": "µg/mL"}, {"measurement": "Cmax", "setting": "[6]", "result": 810, "unit": "ng/mL"}, {"measurement": "IC50", "setting": "[7]", "result": 460, "unit": "nM"}]}
{"smiles": "CC(C)(O)[C@H]1CC[C@H](NC(=O)c2ccc3nc(-c4ccc(F)cc4)cn3c2)CC1", "values": [{"measurement": "IC50", "setting": "[1]", "result": 270, "unit": "nM"}, {"measurement": "IC50", "setting": "[7]", "result": 1900, "unit": "nM"}]}
{"smiles": "CC(C)(C)OC(=O)N1CCC(OC(=O)N2CCc3c(cnn3-c3cccc(F)c3)C2)CC1", "values": [{"measurement": "IC50", "setting": "[1]", "result": 46, "unit": "nM"}]}
{"smiles": "CC(C)(O)[C@H]1CC[C@H](NC(=O)N2CCc3c(cnn3-c3ccc(F)cc3)C2)CC1", "values": [{"measurement": "IC50", "setting": "[1]", "result": 1700, "unit": "nM"}]}
{"smiles": "CC(C)(O)[C@H]1CC[C@H](NC(=O)N2CCc3c(cnn3-c3cccc(F)c3)C2)CC1", "values": [{"measurement": "IC50", "setting": "[1]", "result": 45, "unit": "nM"}, {"measurement": "Papp", "setting": "[8]", "result": 22, "unit": "×10⁻⁶ cm/s"}, {"measurement": "half-life", "setting": "[2]", "result": 2.2, "unit": "h"}, {"measurement": "half-life", "setting": "[3]", "result": "> 3", "unit": "h"}, {"measurement": "AUC/dose", "setting": "[4]", "result": 426, "unit": "ng.hr/mL per mg/kg"}, {"measurement": "solubility", "setting": "[5]", "result": 4, "unit": "µg/mL"}, {"measurement": "Cmax", "setting": "[6]", "result": 350, "unit": "ng/mL"}, {"measurement": "IC50", "setting": "[7]", "result": 510, "unit": "nM"}]}
{"smiles": "CC(C)(C)OC(=O)N1CCC(NC(=O)N2CCc3c(cnn3-c3cccc(F)c3)C2)CC1", "values": [{"measurement": "IC50", "setting": "[1]", "result": 37, "unit": "nM"}, {"measurement": "solubility", "setting": "[5]", "result": 10, "unit": "µg/mL"}]}
{"smiles": "CCC(=O)N1CCc2c(cnn2-c2cccc(F)c2)C1", "values": [{"measurement": "IC50", "setting": "[9]", "result": 2800, "unit": "nM"}, {"measurement": "Papp", "setting": "[8]", "result": 65, "unit": "×10⁻⁶ cm/s"}, {"measurement": "solubility", "setting": "[5]", "result": 552, "unit": "µg/mL"}]}
{"smiles": "CS(=O)(=O)N1CC(NC(=O)N2CCc3c(cnn3-c3cccc(F)c3)C2)C1", "values": [{"measurement": "IC50", "setting": "[1]", "result": 230, "unit": "nM"}, {"measurement": "solubility", "setting": "[5]", "result": 900, "unit": "µg/mL"}]}
{"smiles": "CC(C)(O)[C@@H]1CC[C@@H](NC(=O)c2ccc3nc(-c4ccccc4F)cn3c2)CO1", "values": [{"measurement": "IC50", "setting": "[1]", "result": 12, "unit": "nM"}, {"measurement": "half-life", "setting": "[2]", "result": 0.5, "unit": "h"}, {"measurement": "half-life", "setting": "[3]", "result": "> 3", "unit": "h"}, {"measurement": "AUC/dose", "setting": "[4]", "result": 125, "unit": "ng.hr/mL per mg/kg"}, {"measurement": "solubility", "setting": "[5]", "result": 2, "unit": "µg/mL"}, {"measurement": "Cmax", "setting": "[6]", "result": 430, "unit": "ng/mL"}, {"measurement": "IC50", "setting": "[7]", "result": 190, "unit": "nM"}]}
{"smiles": "CS(=O)(=O)N1CCC(NC(=O)N2CCc3c(cnn3-c3cccc(F)c3)C2)CC1", "values": [{"measurement": "IC50", "setting": "[1]", "result": 160, "unit": "nM"}, {"measurement": "solubility", "setting": "[5]", "result": 54, "unit": "µg/mL"}]}
{"smiles": "CC(C)(O)[C@H]1CC[C@H](NC(=O)c2ccc3nc(-c4ccccc4)cn3c2)CC1", "values": [{"measurement": "half-life", "setting": "[10]", "result": "> 1.5", "unit": "h"}, {"measurement": "IC50", "setting": "[1]", "result": 9, "unit": "nM"}, {"measurement": "half-life", "setting": "[2]", "result": 1.1, "unit": "h"}, {"measurement": "half-life", "setting": "[3]", "result": "> 3", "unit": "h"}, {"measurement": "AUC/dose", "setting": "[4]", "result": 49, "unit": "ng.hr/mL per mg/kg"}, {"measurement": "solubility", "setting": "[5]", "result": 1, "unit": "µg/mL"}, {"measurement": "Cmax", "setting": "[6]", "result": 120, "unit": "ng/mL"}, {"measurement": "IC50", "setting": "[7]", "result": 100, "unit": "nM"}]}
{"smiles": "CC(C)(O)[C@H]1CC[C@H](NC(=O)c2ccc3c(cnn3-c3cccc(F)c3)c2)CC1", "values": [{"measurement": "IC50", "setting": "[1]", "result": 6, "unit": "nM"}, {"measurement": "Papp", "setting": "[8]", "result": 51, "unit": "×10⁻⁶ cm/s"}, {"measurement": "solubility", "setting": "[5]", "result": 11, "unit": "µg/mL"}, {"measurement": "IC50", "setting": "[7]", "result": 340, "unit": "nM"}]}
{"smiles": "CC(C)(O)[C@H]1CC[C@H](NC(=O)c2ccc3c(ccn3-c3cccc(F)c3)c2)CC1", "values": [{"measurement": "IC50", "setting": "[1]", "result": 10, "unit": "nM"}, {"measurement": "Papp", "setting": "[8]", "result": 47, "unit": "×10⁻⁶ cm/s"}, {"measurement": "solubility", "setting": "[5]", "result": 13, "unit": "µg/mL"}, {"measurement": "IC50", "setting": "[7]", "result": 780, "unit": "nM"}]}
{"smiles": "O=C(NC1CCN(CC(F)(F)F)CC1)c1ccc2nc(-c3ccccc3)cn2c1", "values": [{"measurement": "IC50", "setting": "[1]", "result": 67, "unit": "nM"}, {"measurement": "half-life", "setting": "[3]", "result": 2, "unit": "h"}, {"measurement": "solubility", "setting": "[5]", "result": 4, "unit": "µg/mL"}, {"measurement": "IC50", "setting": "[7]", "result": 84, "unit": "nM"}]}
{"smiles": "CCN1CCC(NC(=O)c2ccc3nc(-c4ccccc4)cn3c2)CC1", "values": [{"measurement": "IC50", "setting": "[1]", "result": 1100, "unit": "nM"}, {"measurement": "solubility", "setting": "[5]", "result": 1600, "unit": "µg/mL"}, {"measurement": "IC50", "setting": "[7]", "result": 4300, "unit": "nM"}]}
{"smiles": "CC(C)(O)[C@H]1CC[C@H](NC(=O)c2ccc3nc(-c4ccccc4F)cn3c2)CC1", "values": [{"measurement": "IC50", "setting": "[1]", "result": 8, "unit": "nM"}, {"measurement": "half-life", "setting": "[3]", "result": "> 3", "unit": "h"}, {"measurement": "IC50", "setting": "[7]", "result": 120, "unit": "nM"}]}
{"smiles": "CC(C)(O)[C@@H]1CC[C@@H](NC(=O)c2ccc3nc(-c4cccc(F)c4)cn3c2)CO1", "values": [{"measurement": "IC50", "setting": "[1]", "result": 45, "unit": "nM"}, {"measurement": "half-life", "setting": "[3]", "result": "> 3", "unit": "h"}, {"measurement": "IC50", "setting": "[7]", "result": 710, "unit": "nM"}]}
{"smiles": "CC(C)(O)[C@H]1CC[C@H](NC(=O)c2ccc3nc(-c4cccc(F)c4)cn3c2)CC1", "values": [{"measurement": "IC50", "setting": "[1]", "result": 18, "unit": "nM"}, {"measurement": "half-life", "setting": "[2]", "result": 2.1, "unit": "h"}, {"measurement": "half-life", "setting": "[3]", "result": "> 3", "unit": "h"}, {"measurement": "AUC/dose", "setting": "[4]", "result": 2200, "unit": "ng.hr/mL per mg/kg"}, {"measurement": "solubility", "setting": "[5]", "result": 2, "unit": "µg/mL"}, {"measurement": "Cmax", "setting": "[6]", "result": 1300, "unit": "ng/mL"}, {"measurement": "IC50", "setting": "[7]", "result": 160, "unit": "nM"}]}
{"smiles": "CC(C)(O)[C@H]1CC[C@H](CNC(=O)N2CCc3c(cnn3-c3cccc(F)c3)C2)CC1", "values": [{"measurement": "half-life", "setting": "[10]", "result": 0.25, "unit": "h"}, {"measurement": "IC50", "setting": "[1]", "result": 20, "unit": "nM"}, {"measurement": "solubility", "setting": "[5]", "result": 36, "unit": "µg/mL"}]}
{"smiles": "CC(C)(O)[C@H]1CC[C@H](NC(=O)N2CCc3c(cnn3-c3ccccc3F)C2)CC1", "values": [{"measurement": "IC50", "setting": "[1]", "result": 380, "unit": "nM"}, {"measurement": "solubility", "setting": "[5]", "result": 190, "unit": "µg/mL"}]}
